Experimental data reported in patent US8883827B2, “Azole derivatives as WTN pathway inhibitors” (Oslo University Hospital HF, priority 2009, dated 2014).

Key:
Format in all cases: cell-based
canonical Wnt signaling [1] = assay: IC50 in STF/REN HEK293 cells, 50% Wnt3a-CM; conditions: Homo sapiens; STF/REN HEK293, 50% Wnt3a-CM, 24 h
Procedure: IC50 values were calculated using STF/REN HEK293 cells prepared essentially according to Example 22. Briefly, HEK293 cells (80,000 cells per well) were seeded in 48-well plates coated with poly-L lysine. 24 hours after seeding, the cells were incubated for an additional 24 hours with various compound concentrations in 50% Wnt3a-CM. After compound exposure, the cells were lysed and the firefly luciferase and Renilla activities were measured on a 20/20n Luminometer (Turner BioSystems) as described in the Dual-Glo™ Luciferase Assay System Technical Manual (Promega).
(§1) XLfit (idbs) was used to determine the IC50 and GI50 values in inhibition experiments. The data were fit to the following formulae:
IC50: Langmuir Binding Isotherm: fit=((A+(B*x))+(((C−B)*(1−exp((−1*D)*x)))/D)) res=(y−fit)

SW480 cells = assay: Growth inhibition (GI50) MTS assay; conditions: Homo sapiens, 72 h
Procedure: Growth inhibition curves were prepared using SW480 cells, prepared essentially according to Example 23. SW480 cells (3000 cells per well) were seeded on 96 well plates (eight replicates per treatment). 24 hours later and daily thereafter, cell culture media (including 10% FBS) was mixed with various compound concentrations or with 0.1% DMSO vehicle and then added to the wells. Sixteen wells of seeded control cells, defining incubation time zero (to =24 hour after cell seeding), were incubated with […] substrate in 100 μl of phenol-free D-MEM (Invitrogen) for 2 hours, as described in the CellTiter 96® AQueous Non-Radioactive Cell Proliferation Assay protocol (MTS, Promega). The A490 was recorded. The treatment samples were likewise measured after 72 hours. The following formula was used to determine the single well relative A490 sample values: ((Sample A490−Average A490t0)*100)/(Average A490t720.1% DMSO control−Average A490t0)
as §1
GI50: Eadie-Hofstee Model: fit=(A+((B*x)/((C*(D+1))+x))) inv=(((y−A)*(C*(D+1)))/((A+B)−y)) res=(y−fit)

canonical Wnt signaling [2] = assay: ST-Luc (SuperTOPFlash) Luciferase assay in HEK293 cells, 30% Wnt3a-CM; conditions: Homo sapiens, HEK293; 10 μM compound, 30% Wnt3a-CM, 24 h; relative to DMSO control
Procedure: Inhibition of Wnt signaling by compound No. 1 was quantified in vitro using a Luciferase assay in HEK293 cells transiently transfected with SuperTOPFlash plasmid (ST-Luc) (Veeman M T et al., Curr. Biol. 13: 680-685, 2003) at concentrations from 0.1-10 μM. HEK293 cells were purchased from ATCC (American Type Culture Collection) and maintained according to suppliers recommendations.
Transfection was performed using 80000 HEK293 cells seeded in 48-well plates coated with poly-L lysine. After 24 hours, 0.25 μg total plasmid DNA (0.23 μg SuperTOPFlash+0.02 μg pRL-TK (Renilla)—Promega) and 0.75 μl FuGENE6 (Roche) was combined in a total volume in 25 μl Opti-MEM® (Invitrogen) as described by the manufacturer (Roche). The transfection mixture was added to the plated cells and media were changed after 24 hours.
The Luciferase assay was performed by incubating transfected cells for 24 hours with various concentrations of compound No. 1 in 30% Wnt3a-CM (Wnt3a containing conditioned medium from L Wnt3a cells was harvested as described by ATCC). All treated reporter cells were finally lysed and the firefly luciferase and Renilla activities were measured on a 20/20n Luminometer (Turner BioSystems) as described in the Dual-Glo™ Luciferase Assay System Technical Manual (Promega).
HEK293 cells were transfected, grown and assayed as described in Example 22. 24 hours after seeding, the cells were incubated for an additional 24 hours with 10 μM concentrations of compounds in 30% Wnt3a-CM.
The percent activities shown in Table 3 are calculated relative to DMSO as a control. Some values shown are averages of multiple measurements. Compound XAV939 (Novartis; Huang et al., Nature (2009), 461, pp. 614-20) which is used as a positive control, has an activity of 7%.

control cell lines = assay: MTS cell proliferation assay, Table 6, mean; conditions: HeLa, HCT116, LS174T; 10 μM, 72 h
Source text: (§2) Control cell lines used were HeLa cells (cell growth not controlled by canonical Wnt signalling) and colorectal cancer cell lines LS174T and HCT116 (with mutant β-catenin N-terminal phosphorylation sites). Target cell lines used were colorectal cancer cell lines WiDr, LoVo, HCT-8, HCT-15, COL0205, DLD-1, HT-29, SW620, SW1463, SW480 which all carry a mutant APC gene. Target cells, along with L Wnt3a-expressing cells and HEK293 cells, were purchased from ATCC (American Type Culture Collection) and maintained according to the supplier's recommendations. Wnt3a containing conditioned media (Wnt3a-CM) from L Wnt3a expressing cells was harvested as described by ATCC.
(§3) For the experiment giving the results shown in Table 6, cells were exposed to cell culture medium (including 10% FBS) containing 10 μM of the compound to be tested 24 hours after seeding (3000 cells on 96-well plates). Medium was changed daily. After 72 hours, an MTS assay (CellTiter 96® AQueous Non-Radioactive Cell Proliferation Assay—Promega) was carried out according to the standard procedure. 0.1% DMSO was used as a control.
(§4) The quantity of reduced MTS product (as measured by the absorbance at 490 nm) is directly proportional to the number of living cells in the culture and thus allows a direct comparison of cell proliferation in each case. DMSO was used as a control. The following formula was used to determine single well relative A490 sample values: ((Sample A490−Average A490t0)*100)/(Average A490t720.1% DMSO control−Average A490t0)
(§5) Data shown are A490-percentage values relative to the DMSO control, calculated as described above, and represent averages from 2 to 4 independent experiments (except SW1463 cells treated with IWR-1 which reports only a single experiment). Compounds IWR-1 and XAV939 are known Wnt pathway inhibitors.

APC mutant cell lines = assay: MTS cell proliferation assay, Table 6, mean; conditions: 10 μM, 72 h
Source text: as §2, §3, §4, §5

LoVo = assay: MTS cell proliferation assay, Table 6; conditions: 10 μM, 72 h, relative to DMSO control
Source text: as §2, §3, §4, §5

SW480 = assay: MTS cell proliferation assay, Table 6; conditions: 10 μM, 72 h, relative to DMSO control
Source text: as §2, §3, §4, §5

DLD-1 = assay: MTS cell proliferation assay, Table 6; conditions: 10 μM, 72 h, relative to DMSO control
Source text: as §2, §3, §4, §5

WiDr = assay: MTS cell proliferation assay, Table 6; conditions: 10 μM, 72 h, relative to DMSO control
Source text: as §2, §3, §4, §5

HCT-8 = assay: MTS cell proliferation assay, Table 6; conditions: 10 μM, 72 h, relative to DMSO control
Source text: as §2, §3, §4, §5

HCT116 = assay: MTS cell proliferation assay, Table 6; conditions: HCT116 (control); 10 μM, 72 h; relative to DMSO control
Source text: as §2, §3, §4, §5

HeLa cells = assay: MTS cell proliferation assay, Table 6; conditions: HeLa (control); 10 μM, 72 h; relative to DMSO control
Source text: as §2, §3, §4, §5

COLO205 = assay: MTS cell proliferation assay, Table 6; conditions: 10 μM, 72 h, relative to DMSO control
Source text: as §2, §3, §4, §5

HT-29 = assay: MTS cell proliferation assay, Table 6; conditions: 10 μM, 72 h, relative to DMSO control
Source text: as §2, §3, §4, §5

HCT-15 = assay: MTS cell proliferation assay, Table 6; conditions: 10 μM, 72 h, relative to DMSO control
Source text: as §2, §3, §4, §5

LS174T = assay: MTS cell proliferation assay, Table 6; conditions: LS174T (control); 10 μM, 72 h; relative to DMSO control
Source text: as §2, §3, §4, §5

SW620 = assay: MTS cell proliferation assay, Table 6; conditions: 10 μM, 72 h, relative to DMSO control
Source text: as §2, §3, §4, §5

SW1463 = assay: MTS cell proliferation assay, Table 6; conditions: 10 μM, 72 h, relative to DMSO control
Source text: as §2, §3, §4, §5

Row | Compound | IC50 (canonical Wnt signaling [1]) [µM] | GI50 (SW480 cells) [µM] | activity at 10 µM (canonical Wnt signaling [2]) [%] | further results
1 | Cc1ccc(-c2noc(CSc3nnc(-c4ccncc4)n3-c3ccccc3C)n2)cc1 [Compound 7] | 0.88 | 7.5 | 5.6 | 
2 | Cc1ccc(-c2noc(CSc3nnc(-c4ccncc4)n3-c3cccc(C)c3C)n2)cc1 [Compound 44] | 0.57 | 22 | 10.4 | 
3 | O=C(Nc1cccc2cccnc12)c1ccc(N2C(=O)[C@@H]3[C@H](C2=O)[C@@H]2C=C[C@H]3C2)cc1 [IWR-1, reference compound] |  |  |  | Mean proliferation (control cell lines) (control cell lines): 74%; Ratio of means (APC mutant cell lines; APC mutant cell lines versus control cell lines): 0.83; Mean proliferation (APC mutant cell lines) (APC mutant cell lines; ten APC mutant colorectal lines): 62%; Cell proliferation (%) (LoVo): 73%; Cell proliferation (%) (SW480): 62%; Cell proliferation (%) (DLD-1): 97%; Cell proliferation (%) (WiDr): 61%; Cell proliferation (%) (HCT-8): 70%; Cell proliferation (%) (HCT116): 83%; Cell proliferation (%) (HeLa cells): 77%; Cell proliferation (%) (COLO205): 55%; Cell proliferation (%) (HT-29): 33%; Cell proliferation (%) (HCT-15): 64%; Cell proliferation (%) (LS174T): 63%; Cell proliferation (%) (SW620): 48%; Cell proliferation (%) (SW1463): 57%
4 | Cc1ccccc1-n1c(SCc2nc(-c3ccc(Cl)cc3)no2)nnc1-c1ccncc1 [Compound 41] | 0.47 | < 5 | 9.4 | 
5 | COc1ccc(-n2c(SCc3nnc(-c4ccccc4)o3)nnc2-c2ccncc2)cc1 [Compound 11] | 1.5 | > 25 | 9.3 | 

The next lines start with results.

Row | IC50 (canonical Wnt signaling [1]) [µM] | GI50 (SW480 cells) [µM] | Compound | activity at 10 µM (canonical Wnt signaling [2]) [%] | further results
6 | 0.7 | 9 | Cc1ccc(-c2noc(CSc3nnc(-c4ccnc(O)c4)n3-c3ccccc3C)n2)cc1 [Compound 46] | 13.3 | 
7 | 5.9 | > 25 | COc1ccc(-n2c(SCC(C)(C)c3nc(-c4ccc(C)cc4)no3)nnc2-c2ccncc2)cc1 [Compound 18] | 32.3 | 
8 | 0.4 | 8 | Cc1ccc(-c2noc(CSc3nnc(-c4ccncc4)n3-c3ccccc3F)n2)cc1 [Compound 42] | 14.6 | 
